Data published in US11175282B2, “Method for predicting and monitoring clinical response to immunomodulatory therapy” (BIOHOPE Scientific Solutions for Human Health S.L., priority 2017, dated 2021).

Legend:
Human activated PBMC = test: Disc diffusion assay in semisolid media (agarose 0.5% / collagen 0.3% hydrogels), 6 well plates, resazurin read-out; assay type: cell-based; settings: different disc loads, FIG. 12
Description: PBMC T-Cells were activated though incubation with Dynabeads Human T-activator CD3/CD28 agonistic antibodies (Thermo Fisher, cat #111.32D) using a ratio 1:2 (dynabeads:PBMC) in a cell culture bottle. PBMC in the absent of dynabeads were also cultured as negative control of stimulation.
Paper discs of 6 mm diameter discs were used as immunosuppressant delivery units. Discs were obtained from manual drill of Whatman™, 3 mm CHR chromatography paper sheet or using ready to use commercial paper disc (DDbiolab). Discs were sterilized by autoclave. Immunosupressant drugs (Sigma Aldrich) was dissolved in pure ethanol (Sigma Aldrich) at 20 mg/ml and stored as stock solution at −20° C. till use. […]
Resazurin (blue) transition to resofurin (pink) was monitored with the naked eye or checked after overnight incubation depending on assay design. […] Results were collected through images acquisition with visible light (Sanyo camera S1070 and E1075), ultraviolet light (UVltec Geldoc Gel Light Imaging System) and fluorescence microplate multyreader (PHERAstar® FSX Multimode Microplate Reader from BMG LABTECH or Spark® 10M Tecan.). Inhibitory gradients halos or fronts induced by discs loaded with immunosuppressants were quantified with ImageJ software in a semi-automated process or Spark control v1.2.25 software. […]

stimulated human PBMCs = test: Liquid media serial dilution assay in standard 96 well microplate, resazurin read-out; assay type: cell-based
Description: Human PBMC were extracted for Buffy coat bags from blood bank volunteer donation using density gradient centrifugation in adequate hydrophilic isosmotic polysaccharide solutions with a density of 1.077 g/ml (Pancoll, PAN BIOTECH GmbH or Ficoll, GE Healthcare) at 760 G during 20 minutes at RT. Cells were extracted with pipette from the gradient interphase and then washed in HBSS w/o Ca, Mg and Phenol red (Lonza), and resuspended in X-VIVO 15 (Lonza) medium. Obtained cells were frozen in cryovials with serum free medium (Profreeze-CDM, Lonza) DMSO (Sigma Aldrich) 7.5% and storage until use in liquid nitrogen.
A few days later, removed vials from liquid nitrogen were immediately thawed in a 37° C. water bath for 2 minutes. […] After supernatant discard, cells were re-suspended in X-VIVO medium for further count and viability quantification.
After thawing PBMCs viability was quantified by trypan blue and Neubauer chamber. […]
After 10-12 hours of incubation with presto blue, 100 ul of each well were transferred to a 96 well ELISA plate, and then absorbance at 570 and 620 nm wavelength was quantified in a robotic absorbance microplate reader (Tekan, Infinite F50). Final values were obtained as result of absorbance at 570 nm minus absorbance at 620 nm, following instructions from presto blue manufacturer (Thermo Fisher). […]

[1] = system: renal transplanted patient PBMCs; test: Immunobiogram: disc diffusion gradient in collagen-methylcellulose hydrogel in 12 channelled well plates, clinical study; assay type: cell-based, human; settings: patient 211; compared with tacrolimus and prednisone curves; FIG. 31
Description: A multicenter study was conducted with a cohort of 70 renal transplant recipient patients, also 10 healthy volunteers were included for comparison purposes. The inclusion criteria consisted in men and women aged over 18 years with kidney transplant performed at least 1 year prior to inclusion. Patients present different defined and registered immunological risk profiled when included. Transplant patient clinical history includes complete recording of previous and updated immunological relevant data at the inclusion time.
Sample collection for the immunobiogram implementation consisted in two sodium heparin Vacutainer® tubes. Human PBMCs extraction from blood sample was performed using density gradient centrifugation (760 G during 15-20 minutes at RT) in adequate hydrophilic isosmotic polysaccharide solutions with a density of 1.077 g/ml (Pancoll, PAN BIOTECH GmbH or Ficoll, GE Healthcare). Cells were extracted with pipette from the gradient interphase and then washed in HBSS w/o Ca, Mg and Phenol red (Lonza), and resuspended in X-VIVO 15 (Lonza) medium. Obtained cells were frozen in cryovials with serum free medium (Profreeze-CDM, Lonza) DMSO (Sigma Aldrich) 7.5% and storage in liquid nitrogen until use. […] After the supernatant was discarded, cells were re-suspended in X-VIVO medium for further count and viability quantification. […]

[2] = general solubility profile, no test described; cited from earlier work

CO[C@H]1C[C@@H]2CC[C@@H](C)[C@@](O)(O2)C(=O)C(=O)N2CCCC[C@H]2C(=O)O[C@H]([C@H](C)C[C@@H]2CC[C@@H](OCCO)[C@H](OC)C2)CC(=O)[C@H](C)/C=C(\C)[C@@H](O)[C@@H](OC)C(=O)[C@H](C)C[C@H](C)/C=C/C=C/C=C/1C [Everolimus]
inhibitory halos over activated human PBMC (Human activated PBMC): Dose dependant inhibitory halos
recovery of PBMC proliferative capacity versus positive control (stimulated human PBMCs; 96 standard wells microplate serial dilutions, all concentration tested, even femtomolar, FIGS. 14 and 15): did not recover proliferative capacity comparable with positive control level
inhibitory effect over stimulated human PBMCs (stimulated human PBMCs; standard wells, all the concentrations tested (even at femtomolar levels)): at least some inhibitory level effect

COc1c(C)c2c(c(O)c1C/C=C(\C)CCC(=O)OCCN1CCOCC1)C(=O)OC2 [MMF, micofenolate]
Immunobiogram response curve [1]: less responsive

COc1c(C)c2c(c(O)c1C/C=C(\C)CCC(=O)O)C(=O)OC2 [Mycophenolic acid, Mycophenolic Acid]
aqueous solubility [2]: good aqueous solubility
inhibitory halos over activated human PBMC (Human activated PBMC): Dose dependant inhibitory halos
